Assay results from US20220220106A1, “QUINOLINE COMPOUNDS AND PHARMACEUTICAL COMPOSITIONS AND USES THEREOF” (Academy of Military Medical Sciences, priority 2019, published 2022).

Tests used:
[1] = system: Enterovirus 71 (EV71) H strain; test: In vitro anti-EV71 activity (antiviral activity in RD cells, CellTiter-Glo); type: cell-based; details: for IC50: Enterovirus A, 96 h, EV71 H strain, RD cells, 4 days, CellTiter-Glo, read-out: IC50; for in vitro anti-EV71 activity, in words: EV71, RD cells
Method: According to the mass and molecular weight of the compound to be tested, the compound to be tested was dissolved to 100 mM (mmol/L) with DMSO.
Detection of Antiviral Activity:
(1) First, the compound to be tested was diluted to 800 μM with cell maintenance solution (DMEM+2% FBS, Gibco, catalog numbers: 11995-065, 1600-044), and three-fold gradient dilution was performed to prepare 10 concentrations in total. The diluted compound was added to a 96-well plate with white wall and transparent bottom, 50 μl per well. To both the cell control group and the virus control group, an equal volume of the cell maintenance solution was added.
(2) EV71 virus (purchased from ATCC) was taken out from the −80° C. refrigerator and equilibrated to room temperature.
(3) The virus seed was diluted with a virus growth solution (DMEM+2% FBS, Gibco, catalog numbers: 11995-065, 1600-044) to 100TCID50, the diluted virus seed was added to the 96-well plate of (1), with […] per well. The same volume of the virus growth solution was added to the cell control group.
(4) RD cells (purchased from ATCC) were inoculated at a concentration of 1*10^5/mL into the 96-well plate of (1), with 100 μL per well, to reach a final volume of 200 μL per well. The final concentration of drug was 0.25 times the initial concentration.
(5) RD cells were cultured at 37° C. for 4 days for testing.
(6) The Buffer of CellTiter-Glo® luminescent cell viability assay reagent (Promega) was mixed with the substrate in the dark to prepare a working solution.
(§1) (7) The culture medium in the plate was discarded, the plate was dried by patting, 100 μL of the detection reagent was added to each well, and the 96-well plate was shaken on an orbital shaker for 4 minutes to induce cell lysis. After keeping in the dark and subjecting to signal stabilization for 15 minutes, the chemiluminescence unit was detected by using MD5 microplate reader (Molecular Devices), and the plate reading program was performed according to the CellTiter-Glo preset program.
The inhibition rate-concentration curve was fitted to S-curve by using origin8.0 software to calculate the IC50 value of the compound to be tested.
(§2) The formula for calculating the inhibition rates of drug at different dilution degrees was as follows: inhibition rate (%)=(average value of cell control group−value of experimental group)/(average value of cell control group−minimum value of experimental group)*100
(§3) The inhibition rate-concentration curve was fitted to S-curve by using origin8.0 software, and the IC50 value of the compound to be tested was calculated. The same method was used to calculate the TD50 value, and the selection index SI=TD50/IC50 was calculated according to the half maximal inhibitory concentration IC50 and the median toxic dose TD50.

[2] = system: RD cells; test: Detection of cytotoxicity in RD cells (CellTiter-Glo); type: cell-based; details: 4 days, CellTiter-Glo, median toxic dose
Method: Detection of Cytotoxicity:
(1) The compound to be tested was diluted to a concentration of 400 μM with the cell maintenance solution, and 3-fold gradient dilution was carried out to obtain 10 concentrations in total.
(2) The diluted compound was added to a 96-well plate with white wall and transparent bottom, with 100 μL per well. An equal volume of the cell maintenance solution was added to the cell control group.
(3) RD cells were inoculated into the above 96-well plate at a concentration of 1*10^5/mL, with 100 μL per well, to reach a final volume of 200 μL per well, and the final concentration of drug was 0.5 times the pretreatment concentration.
(4) The RD cells were cultured at 37° C. for 4 days for testing.
(5) The Buffer of CellTiter-Glo® luminescent cell viability assay reagent was mixed with the substrate in the dark to prepare a working solution.
as §1, with “(6)” for “(7)”, “detected,” for “detected by using MD5 microplate reader (Molecular Devices),”
as §2, §3

SMILES | melting point [°C] | IC50 [1] [µM] | TD50 [2] [µM] | in vitro anti-EV71 activity, in words [1]
CC(=O)/C=C/c1cnc2ccc(-c3ccc(C(F)(F)F)cc3)cc2c1Nc1cccc(C(F)(F)F)c1 [HTL-3-18, (E)-6-[4-(trifluoromethyl)phenyl]-4-[3-(trifluoromethyl)phenyl]aminoquinoline-3-butenone] | 189 to 191 | > 200 | >200 | –
CC(=O)/C=C/c1cnc2ccc(-c3ccc(Cl)cc3)cc2c1Nc1cccc(C(F)(F)F)c1 [HTL-3-37, (E)-6-(4-chloro)phenyl-4-[3-(trifluoromethyl)phenyl]aminoquinoline-3-butenone] | 197 to 199 | > 200 | 1.88 ± 0.46 | –
Cc1ccc(Nc2ccc3ncc4ccc(=O)n(-c5cccc(C(F)(F)F)c5)c4c3c2)cn1 [HTL-6-19, 9-[3-(6-methylpyridyl)]imino-2-oxo-1-[3-(trifluoromethyl)phenyl]-1,2-dihydrobenzo[h][1,6]naphthyridine] | 234 to 236 | > 200 | 22.62 ± 2.15 | –
CC(=O)/C=C/c1cnc2ccc(-c3cccc(N)c3)cc2c1Nc1cccc(C(F)(F)F)c1 [HTL-2-42, (E)-6-(3-aminophenyl)-4-[3-(trifluoromethyl)phenyl]aminoquinoline-3-butenone] | 184 to 186 | > 200 | >200 | –
O=c1ccc2cnc3ccc(Nc4ccc(F)cc4)cc3c2n1-c1cccc(C(F)(F)F)c1 [HTL-6-23, 9-(4-fluorophenyl)imino-2-oxo-1-[3-(trifluoromethyl)phenyl]-1,2-dihydrobenzo[h][1,6]naphthyridine] | 176 to 179 | > 200 | 7.22 ± 0.47 | –
CCOC(=O)CC/C=C/c1ccc2ncc3oc(=O)n(-c4cccc(C(F)(F)F)c4)c3c2c1 [HTL-6-38, (E)-8-(4-ethoxycarbonyl-but-1-enyl)-1-[3-(trifluoromethyl)phenyl]oxazolo [5,4-c]quinolin-2(1H)-one] | 162 to 164 | > 200 | 22.74 ± 0.01 | –
CC(=O)/C=C/c1cnc2ccc(-c3cnc4ccccc4c3)cc2c1Nc1cccc(C(F)(F)F)c1 [HTL-3-25, (E)-6-(3-quinolyl)-4-[3-(trifluoromethyl)phenyl]aminoquinoline-3-butenone] | 173 to 176 | > 200 | 0.68 ± 0.21 | –
N#C/C=C/c1ccc2ncc3oc(=O)n(-c4cccc(C(F)(F)F)c4)c3c2c1 [HTL-6-32, (E)-8-(2-cyano-vinyl)-1-[3-(trifluoromethyl)phenyl]oxazolo[5,4-c]quinolin-2(1H)-one] | 235 to 237 | > 200 | >200 | –
CCOC(=O)/C=C/c1ccc2ncc3ccc(=O)n(-c4cccc(C(F)(F)F)c4)c3c2c1 [HTL-7-26, (E)-9-[2-ethoxycarbonyl-vinyl]-2-oxo-1-[3-(trifluoromethyl)phenyl]-1,2-dihydrobenzo[h][1,6]naphthyridine] | 210 to 212 | 0.28 ± 0.2 | 1.29 ± 0.57 | moderate inhibitory activity
Nc1cncc(Nc2ccc3ncc4ccc(=O)n(-c5cccc(C(F)(F)F)c5)c4c3c2)c1 [HTL-6-29, 9-[3-(5-aminopyridyl)]imino-2-oxo-1-[3-(trifluoromethyl)phenyl]-1,2-dihydrobenzo[h][1,6]naphthyridine] | 156 to 158 | 1.75 ± 0.41 | 28.65 ± 1.67 | moderate activity
O=c1oc2cnc3ccc(-c4cccs4)cc3c2n1-c1cccc(C(F)(F)F)c1 [HTL-5-26, 8-(2-thienyl)-1-[3-(trifluoromethyl)phenyl]oxazolo[5,4-c]quinolin-2(1H)-one] | 272 to 274 | > 200 | >200 | –
Nc1cncc(Nc2ccc3ncc4ccc(=O)n(-c5cccc(C(F)(F)F)c5)c4c3c2)n1 [HTL-6-28, 9-[2-(6-aminopyrazinyl)]imino-2-oxo-1-[3-(trifluoromethyl)phenyl]-1,2-dihydrobenzo[h][1,6]naphthyridine] | 192 to 194 | 3.7 ± 0.03 | 8.67 ± 0.97 | moderate activity
CCCCc1ccc(-c2ccc3ncc(/C=C/C(C)=O)c(Nc4cccc(C(F)(F)F)c4)c3c2)cc1 [HTL-3-42, (E)-6-(4-butyl)phenyl-4-[3-(trifluoromethyl)phenyl]aminoquinoline-3-butenone] | 149 to 150 | > 200 | 0.96 ± 0.15 | –
O=c1oc2cnc3ccc(-c4ccc(C(F)(F)F)cc4)cc3c2n1-c1cccc(C(F)(F)F)c1 [HTL-5-29, 8-(4-trifluoromethyl)phenyl-1-[3-(trifluoromethyl)phenyl]oxazolo[5,4-c]quinolin-2(1H)-one] | 265 to 266 | > 200 | >200 | –
CC(=O)/C=C/c1cnc2ccc(-c3ccc(O)cc3)cc2c1Nc1cccc(C(F)(F)F)c1 [HTL-3-11, (E)-6-(4-hydroxy)phenyl-4-[3-(trifluoromethyl)phenyl]aminoquinoline-3-butenone] | 218 to 222 | > 200 | >200 | –
CCCc1ccc(-c2ccc3ncc4oc(=O)n(-c5cccc(C(F)(F)F)c5)c4c3c2)cc1 [HTL-5-34, 8-(4-propyl)phenyl-1-[3-(trifluoromethyl)phenyl]oxazolo[5,4-c]quinolin-2(1H)-one] | 220 to 221 | > 200 | >200 | –
O=c1oc2cnc3ccc(-c4cnc5ccccc5c4)cc3c2n1-c1cccc(C(F)(F)F)c1 [HTL-5-32, 8-(3-quinolyl)-1-[3-(trifluoromethyl)phenyl]oxazolo[5,4-c]quinolin-2(1H)-one] | 242 to 244 | > 200 | 68.88 ± 0.13 | –
O=c1ccc2cnc3ccc(Nc4ccc(F)nc4)cc3c2n1-c1cccc(C(F)(F)F)c1 [HTL-6-20, 9-[3-(6-fluoropyridyl)]imino-2-oxo-1-[3-(trifluoromethyl)phenyl]-1,2-dihydrobenzo[h][1,6]naphthyridine] | 232 to 233 | > 200 | 59.31 ± 3.98 | –
CC(=O)/C=C/c1cnc2ccc(-c3cncc(C#N)c3)cc2c1Nc1cccc(C(F)(F)F)c1 [HTL-3-46, (E)-6-[3-(5-cyano)pyridyl]-4-[3-(trifluoromethyl)phenyl]aminoquinoline-3-butenone] | 227 to 229 | > 200 | 3.59 ± 2.46 | –
CC(=O)/C=C/c1cnc2ccc(-c3cccc(Cl)c3)cc2c1Nc1cccc(C(F)(F)F)c1 [HTL-3-36, (E)-6-(3-chloro)phenyl-4-[3-(trifluoromethyl)phenyl]aminoquinoline-3-butenone] | 182 to 183 | > 200 | 4.65 ± 3.50 | –
CC(=O)/C=C/c1cnc2ccc(-c3ccc(CC(C)C)cc3)cc2c1Nc1cccc(C(F)(F)F)c1 [HTL-3-41, (E)-6-(4-isobutyl)phenyl-4-[3-(trifluoromethyl)phenyl]aminoquinoline-3-butenone] | 187 to 191 | > 200 | 0.99 ± 0.24 | –
